Data from ChEMBL document CHEMBL1201862, “PubChem BioAssay data set” (2004).
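These data come from cells grown in 96-well plates and exposed to compound for 48 hours at five concentrations. Abbreviation: GI50, concentration required for 50% inhibition of growth.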 Calls of active or inactive are those of the source. Cut-off read from the data, not from the text of the source: active = GI50 up to about 1.1 µM and inactive = higher.

How the values were obtained:
Test in all cases: growth of human tumour cells (NCI), 48 h
MOLT-4 = tested on: MOLT-4
DU-145 = tested on: DU-145
A498 = tested on: A498
HOP-92 = tested on: HOP-92
Hs-578T = tested on: Hs-578T
SNB-75 = tested on: SNB-75
OVCAR-4 = tested on: OVCAR-4
HCT-15 = tested on: HCT-15
HL-60 = tested on: HL-60
BT-549 = tested on: BT-549
SF-295 = tested on: SF-295
COLO 205 = tested on: COLO 205
UO-31 = tested on: UO-31
NCI-H23 = tested on: NCI-H23
LOX IMVI = tested on: LOX IMVI
SF-268 = tested on: SF-268
MDA-MB-231 = tested on: MDA-MB-231
RPMI-8226 = tested on: RPMI-8226
IGROV-1 = tested on: IGROV-1
KM12 = tested on: KM12
SNB-19 = tested on: SNB-19
HOP-62 = tested on: HOP-62
NCI-H460 = tested on: NCI-H460
MDA-N = tested on: MDA-N
PC-3 = tested on: PC-3
HCC 2998 = tested on: HCC 2998
SF-539 = tested on: SF-539
CCRF-CEM = tested on: CCRF-CEM
MCF7 = tested on: MCF7
SN12C = tested on: SN12C
HT-29 = tested on: HT-29
EKVX = tested on: EKVX
K562 = tested on: K562
UACC-257 = tested on: UACC-257
NCI-H226 = tested on: NCI-H226
SW-620 = tested on: SW-620
HCT-116 = tested on: HCT-116
SK-MEL-5 = tested on: SK-MEL-5
OVCAR-8 = tested on: OVCAR-8
SR = tested on: SR
NCI/ADR-RES = tested on: NCI/ADR-RES
M14 = tested on: M14
OVCAR-5 = tested on: OVCAR-5
MDA-MB-435 = tested on: MDA-MB-435
ACHN = tested on: ACHN
U-251 = tested on: U-251
CAKI-1 = tested on: CAKI-1
A549 = tested on: A549
786-0 = tested on: 786-0
TK-10 = tested on: TK-10
UACC-62 = tested on: UACC-62
SK-MEL-28 = tested on: SK-MEL-28
T47D = tested on: T47D
Malme-3M = tested on: Malme-3M
OVCAR-3 = tested on: OVCAR-3
NCI-H522 = tested on: NCI-H522
SK-MEL-2 = tested on: SK-MEL-2
RXF 393 = tested on: RXF 393
SK-OV-3 = tested on: SK-OV-3

For `O=C1N2CCN=C2c2ccccc2C1(O)c1ccccc1` (stereo unspecified), the GI50 (MOLT-4) was > 100 µM (inactive), the GI50 (DU-145) was > 100 µM (inactive) and the GI50 (A498) was > 100 µM (inactive). The GI50 (HOP-92) was > 100 µM (inactive), the GI50 (Hs-578T) was > 100 µM (inactive) and the GI50 (SNB-75) was > 100 µM (inactive). For the same molecule, the GI50 (OVCAR-4) was > 100 µM (inactive), the GI50 (HCT-15) was greater than 100 µM and the GI50 (HL-60) was > 100 µM (inactive). For the same molecule, the GI50 (BT-549) was > 100 µM (inactive), the GI50 (SF-295) was > 100 µM (inactive) and the GI50 (COLO 205) was > 100 µM (inactive). The GI50 (UO-31) was > 100 µM (inactive), the GI50 (NCI-H23) was > 100 µM (inactive) and the GI50 (LOX IMVI) was > 100 µM (inactive). For the same molecule, the GI50 (SF-268) was > 100 µM (inactive), the GI50 (MDA-MB-231) was > 100 µM (inactive) and the GI50 (RPMI-8226) was > 100 µM (inactive). For the same molecule, the GI50 (IGROV-1) was > 100 µM (inactive), the GI50 (KM12) was > 100 µM (inactive) and the GI50 (SNB-19) was > 100 µM (inactive). The GI50 (HOP-62) was > 100 µM (inactive), the GI50 (NCI-H460) was > 100 µM (inactive) and the GI50 (MDA-N) was > 100 µM (inactive). For the same molecule, the GI50 (PC-3) was > 100 µM (inactive), the GI50 (HCC 2998) was > 100 µM (inactive) and the GI50 (SF-539) was > 100 µM (inactive). For the same molecule, the GI50 (CCRF-CEM) was > 100 µM (inactive), the GI50 (MCF7) was > 100 µM (inactive) and the GI50 (SN12C) was > 100 µM (inactive). For the same molecule, the GI50 (HT-29) was > 100 µM (inactive), the GI50 (EKVX) was > 100 µM (inactive) and the GI50 (K562) was > 100 µM (inactive). For the same molecule, the GI50 (UACC-257) was > 100 µM (inactive), the GI50 (NCI-H226) was > 100 µM (inactive) and the GI50 (SW-620) was > 100 µM (inactive). For the same molecule, the GI50 (HCT-116) was > 100 µM (inactive), the GI50 (SK-MEL-5) was > 100 µM (inactive) and the GI50 (OVCAR-8) was > 100 µM (inactive). The GI50 (SR) was > 100 µM (inactive), the GI50 (NCI/ADR-RES) was > 100 µM (inactive) and the GI50 (M14) was > 100 µM (inactive). For the same molecule, the GI50 (OVCAR-5) was > 100 µM (inactive), the GI50 (MDA-MB-435) was > 100 µM (inactive) and the GI50 (ACHN) was > 100 µM (inactive). The GI50 (U-251) was > 100 µM (inactive), the GI50 (CAKI-1) was > 100 µM (inactive) and the GI50 (A549) was > 100 µM (inactive). The GI50 (786-0) was > 100 µM (inactive), the GI50 (TK-10) was > 100 µM (inactive) and the GI50 (UACC-62) was > 100 µM (inactive). For the same molecule, the GI50 (SK-MEL-28) was > 100 µM (inactive) and the GI50 (T47D) was > 100 µM (inactive).

`c1ccc(C2=NN(c3nc4ccccc4s3)C3(CCCCC3)N2)nc1` was tested, and the GI50 (MOLT-4) was 4.01 µM (inactive), the GI50 (DU-145) was 35.7 µM (inactive) and the GI50 (A498) was 32.2 µM (inactive). The GI50 (HOP-92) was 31.7 µM (inactive), the GI50 (Hs-578T) was 31.7 µM (inactive) and the GI50 (SNB-75) was 25.6 µM (inactive). For the same molecule, the GI50 (OVCAR-4) was 24.8 µM (inactive), the GI50 (HCT-15) was 32.8 µM and the GI50 (HL-60) was 25.2 µM (inactive). The GI50 (BT-549) was 20.5 µM (inactive), the GI50 (SF-295) was 27.8 µM (inactive) and the GI50 (COLO 205) was 19.3 µM (inactive). The GI50 (UO-31) was 35.1 µM (inactive), the GI50 (NCI-H23) was 24.9 µM (inactive) and the GI50 (LOX IMVI) was 20.1 µM (inactive). For the same molecule, the GI50 (SF-268) was 59.2 µM (inactive), the GI50 (MDA-MB-231) was 21.6 µM (inactive) and the GI50 (RPMI-8226) was 16.1 µM (inactive). For the same molecule, the GI50 (IGROV-1) was 19.7 µM (inactive), the GI50 (Malme-3M) was 11.7 µM (inactive) and the GI50 (KM12) was 22 µM (inactive). For the same molecule, the GI50 (SNB-19) was 40.2 µM (inactive), the GI50 (HOP-62) was 28.9 µM (inactive) and the GI50 (NCI-H460) was 15.2 µM (inactive). For the same molecule, the GI50 (MDA-N) was 24.9 µM (inactive), the GI50 (PC-3) was 15.8 µM (inactive) and the GI50 (OVCAR-3) was 16.7 µM (inactive). For the same molecule, the GI50 (SF-539) was 46.3 µM (inactive), the GI50 (NCI-H522) was 26.5 µM (inactive) and the GI50 (CCRF-CEM) was 29 µM (inactive). For the same molecule, the GI50 (MCF7) was 21.6 µM (inactive), the GI50 (SK-MEL-2) was 18.4 µM (inactive) and the GI50 (SN12C) was 19.7 µM (inactive). The GI50 (HT-29) was 19.9 µM (inactive), the GI50 (EKVX) was 33.9 µM (inactive) and the GI50 (RXF 393) was 21.9 µM (inactive). For the same molecule, the GI50 (K562) was 16.6 µM (inactive), the GI50 (UACC-257) was 16.7 µM (inactive) and the GI50 (NCI-H226) was 19.4 µM (inactive). For the same molecule, the GI50 (SW-620) was 30.7 µM (inactive), the GI50 (SK-OV-3) was > 100 µM (inactive) and the GI50 (HCT-116) was 26.4 µM (inactive). The GI50 (SK-MEL-5) was 20.1 µM (inactive), the GI50 (OVCAR-8) was 31.8 µM (inactive) and the GI50 (SR) was 1.85 µM (inactive). For the same molecule, the GI50 (NCI/ADR-RES) was 19.7 µM (inactive), the GI50 (M14) was 21.4 µM (inactive) and the GI50 (OVCAR-5) was 43.5 µM (inactive). For the same molecule, the GI50 (MDA-MB-435) was 23.4 µM (inactive), the GI50 (ACHN) was 29.9 µM (inactive) and the GI50 (U-251) was 20.4 µM (inactive). For the same molecule, the GI50 (CAKI-1) was 29.4 µM (inactive), the GI50 (A549) was 27.4 µM (inactive) and the GI50 (786-0) was 18.3 µM (inactive). The GI50 (TK-10) was 21.8 µM (inactive), the GI50 (UACC-62) was 30.7 µM (inactive) and the GI50 (SK-MEL-28) was 44.3 µM (inactive). The GI50 (T47D) was 7.64 µM (inactive).
